Measured values: ChEMBL document CHEMBL5465560, “Selectivity Literature for EUbOPEN Chemogenomic Library” (2024)
Values belong to the compound of their own block, whether it stands above or below them.

Tests used:
[1] = biological target: T1, Ephrin type-B receptor 3 (Homo sapiens) (UniProt P54753); conditions: at 10 µM
T1 sequence (whole entry): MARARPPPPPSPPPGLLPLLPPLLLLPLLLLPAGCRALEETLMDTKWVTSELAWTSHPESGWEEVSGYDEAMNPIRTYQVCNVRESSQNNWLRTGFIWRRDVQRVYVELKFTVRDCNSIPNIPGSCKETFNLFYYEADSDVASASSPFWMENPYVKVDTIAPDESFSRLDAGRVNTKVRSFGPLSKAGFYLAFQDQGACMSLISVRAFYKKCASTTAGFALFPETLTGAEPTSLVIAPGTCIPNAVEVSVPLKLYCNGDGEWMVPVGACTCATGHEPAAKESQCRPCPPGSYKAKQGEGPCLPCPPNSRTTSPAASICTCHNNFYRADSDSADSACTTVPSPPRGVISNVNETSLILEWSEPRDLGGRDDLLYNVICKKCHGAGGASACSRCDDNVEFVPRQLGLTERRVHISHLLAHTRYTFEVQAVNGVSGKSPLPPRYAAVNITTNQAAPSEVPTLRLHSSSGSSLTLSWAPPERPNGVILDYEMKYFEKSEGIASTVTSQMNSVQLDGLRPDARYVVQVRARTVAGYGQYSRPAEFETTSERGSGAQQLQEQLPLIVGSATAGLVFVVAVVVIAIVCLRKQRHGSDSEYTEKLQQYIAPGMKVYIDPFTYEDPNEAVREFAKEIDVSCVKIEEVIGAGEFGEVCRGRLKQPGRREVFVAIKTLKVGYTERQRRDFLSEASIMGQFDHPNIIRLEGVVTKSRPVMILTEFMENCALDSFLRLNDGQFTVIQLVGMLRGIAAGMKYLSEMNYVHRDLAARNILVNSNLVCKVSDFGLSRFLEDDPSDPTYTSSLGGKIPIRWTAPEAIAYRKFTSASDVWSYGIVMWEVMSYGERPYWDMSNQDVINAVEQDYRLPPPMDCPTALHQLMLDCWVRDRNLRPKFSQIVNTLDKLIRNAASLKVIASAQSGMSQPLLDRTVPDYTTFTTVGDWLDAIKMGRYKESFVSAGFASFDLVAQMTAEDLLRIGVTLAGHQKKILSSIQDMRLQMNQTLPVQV

[2] = biological target: T2, Serine/threonine-protein kinase D1 (Homo sapiens) (UniProt Q15139); test: Selectivity interaction (Kinase panel (Invitrogen)) EUB0000639a PRKD1; conditions: at 200 nM
T2 sequence (whole entry): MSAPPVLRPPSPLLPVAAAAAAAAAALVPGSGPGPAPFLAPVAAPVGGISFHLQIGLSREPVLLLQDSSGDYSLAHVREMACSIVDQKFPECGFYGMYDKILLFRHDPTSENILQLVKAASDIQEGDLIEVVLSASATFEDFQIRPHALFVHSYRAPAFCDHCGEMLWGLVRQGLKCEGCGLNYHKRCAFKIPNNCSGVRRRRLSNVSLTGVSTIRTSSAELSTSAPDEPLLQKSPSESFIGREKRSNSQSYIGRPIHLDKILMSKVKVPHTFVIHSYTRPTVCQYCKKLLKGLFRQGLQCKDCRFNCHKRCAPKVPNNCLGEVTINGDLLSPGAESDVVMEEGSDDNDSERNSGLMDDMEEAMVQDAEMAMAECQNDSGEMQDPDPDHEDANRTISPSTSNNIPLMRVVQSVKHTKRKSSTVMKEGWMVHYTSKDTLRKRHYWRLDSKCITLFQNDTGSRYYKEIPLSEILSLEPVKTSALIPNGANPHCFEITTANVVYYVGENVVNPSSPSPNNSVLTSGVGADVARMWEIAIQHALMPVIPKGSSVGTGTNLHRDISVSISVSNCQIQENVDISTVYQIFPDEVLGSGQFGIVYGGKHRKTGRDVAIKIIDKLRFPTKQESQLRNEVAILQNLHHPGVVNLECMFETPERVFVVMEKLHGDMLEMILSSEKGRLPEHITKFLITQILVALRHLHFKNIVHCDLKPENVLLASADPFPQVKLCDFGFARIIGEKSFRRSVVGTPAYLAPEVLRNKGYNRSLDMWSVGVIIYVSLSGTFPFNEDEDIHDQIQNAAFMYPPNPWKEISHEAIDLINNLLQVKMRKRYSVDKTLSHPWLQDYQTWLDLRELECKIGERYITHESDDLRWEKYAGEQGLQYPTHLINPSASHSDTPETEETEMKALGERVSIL

[3] = biological target: T3, Cyclin-dependent kinase 11A (Homo sapiens) (UniProt Q9UQ88); test: Selectivity interaction (LanthaScreen Eu Kinase Binding Assay) EUB0001632a CDK11A; conditions: at 10 µM
T3 sequence (whole entry): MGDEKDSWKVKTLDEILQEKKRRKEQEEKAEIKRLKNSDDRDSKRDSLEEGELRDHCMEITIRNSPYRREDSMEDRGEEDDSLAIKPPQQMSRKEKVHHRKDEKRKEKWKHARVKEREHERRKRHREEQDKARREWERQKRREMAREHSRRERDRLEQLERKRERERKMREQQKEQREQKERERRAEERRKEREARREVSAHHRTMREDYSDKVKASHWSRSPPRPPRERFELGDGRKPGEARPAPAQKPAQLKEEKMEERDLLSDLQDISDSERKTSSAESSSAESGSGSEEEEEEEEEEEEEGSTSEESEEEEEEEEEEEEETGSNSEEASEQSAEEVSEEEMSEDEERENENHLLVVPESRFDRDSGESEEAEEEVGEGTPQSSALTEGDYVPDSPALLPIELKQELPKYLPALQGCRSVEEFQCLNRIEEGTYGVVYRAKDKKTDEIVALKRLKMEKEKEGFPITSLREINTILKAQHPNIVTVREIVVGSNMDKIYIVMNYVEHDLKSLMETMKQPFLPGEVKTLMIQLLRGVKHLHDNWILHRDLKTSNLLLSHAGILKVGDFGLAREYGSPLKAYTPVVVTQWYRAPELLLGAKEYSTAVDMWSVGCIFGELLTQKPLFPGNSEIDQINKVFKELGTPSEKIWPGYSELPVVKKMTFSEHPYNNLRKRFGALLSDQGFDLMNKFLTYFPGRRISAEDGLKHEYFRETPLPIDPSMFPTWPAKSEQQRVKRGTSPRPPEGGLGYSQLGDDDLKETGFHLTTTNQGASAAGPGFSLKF

[4] = biological target: Serine/threonine-protein kinase 38 (Homo sapiens) (UniProt Q15208); test: Selectivity interaction (KinomeScan (DiscoverX)) EUB0000695a STK38; conditions: at 100 nM
Sequence of Serine/threonine-protein kinase 38 (Homo sapiens) (Q15208 2-465 limits assumed): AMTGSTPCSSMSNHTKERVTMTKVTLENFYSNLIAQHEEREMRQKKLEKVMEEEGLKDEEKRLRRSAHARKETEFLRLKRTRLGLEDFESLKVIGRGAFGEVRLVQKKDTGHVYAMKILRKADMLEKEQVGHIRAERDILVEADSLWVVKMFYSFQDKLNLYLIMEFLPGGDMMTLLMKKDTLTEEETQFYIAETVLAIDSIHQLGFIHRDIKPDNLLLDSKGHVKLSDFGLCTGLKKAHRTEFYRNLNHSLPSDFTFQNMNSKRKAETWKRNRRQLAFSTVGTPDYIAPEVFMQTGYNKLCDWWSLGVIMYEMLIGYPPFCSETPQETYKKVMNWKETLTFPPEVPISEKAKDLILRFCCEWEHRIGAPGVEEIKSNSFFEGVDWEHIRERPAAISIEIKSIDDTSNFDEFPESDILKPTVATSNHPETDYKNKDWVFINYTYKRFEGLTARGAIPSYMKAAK

[5] = biological target: Serine/threonine-protein kinase 33 (Homo sapiens) (UniProt Q9BYT3); test: Selectivity interaction (KinomeScan (DiscoverX)) EUB0000229b STK33; conditions: at 10 µM
Sequence of Serine/threonine-protein kinase 33 (Homo sapiens) (Q9BYT3 whole entry, looked up): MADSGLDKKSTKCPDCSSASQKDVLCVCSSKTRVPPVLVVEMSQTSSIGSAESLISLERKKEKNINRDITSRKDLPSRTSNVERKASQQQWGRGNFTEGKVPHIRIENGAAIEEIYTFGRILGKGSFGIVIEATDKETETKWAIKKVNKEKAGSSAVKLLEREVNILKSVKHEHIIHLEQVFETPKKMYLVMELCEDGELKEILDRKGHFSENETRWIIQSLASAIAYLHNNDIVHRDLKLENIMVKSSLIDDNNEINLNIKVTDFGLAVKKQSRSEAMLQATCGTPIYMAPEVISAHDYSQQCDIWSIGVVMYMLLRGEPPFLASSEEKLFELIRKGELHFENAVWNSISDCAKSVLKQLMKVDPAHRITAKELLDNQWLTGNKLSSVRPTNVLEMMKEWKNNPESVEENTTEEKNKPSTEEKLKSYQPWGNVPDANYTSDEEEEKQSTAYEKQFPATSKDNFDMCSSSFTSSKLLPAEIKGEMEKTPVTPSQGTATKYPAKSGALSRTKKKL

[6] = biological target: Fibroblast growth factor receptor 1 (Homo sapiens, UniProt P11362); test: Selectivity interaction (KinomeScan (DiscoverX)) EUB0000655a FGFR1; conditions: at 10 µM
Sequence of Fibroblast growth factor receptor 1 (P11362 22-822 limits assumed): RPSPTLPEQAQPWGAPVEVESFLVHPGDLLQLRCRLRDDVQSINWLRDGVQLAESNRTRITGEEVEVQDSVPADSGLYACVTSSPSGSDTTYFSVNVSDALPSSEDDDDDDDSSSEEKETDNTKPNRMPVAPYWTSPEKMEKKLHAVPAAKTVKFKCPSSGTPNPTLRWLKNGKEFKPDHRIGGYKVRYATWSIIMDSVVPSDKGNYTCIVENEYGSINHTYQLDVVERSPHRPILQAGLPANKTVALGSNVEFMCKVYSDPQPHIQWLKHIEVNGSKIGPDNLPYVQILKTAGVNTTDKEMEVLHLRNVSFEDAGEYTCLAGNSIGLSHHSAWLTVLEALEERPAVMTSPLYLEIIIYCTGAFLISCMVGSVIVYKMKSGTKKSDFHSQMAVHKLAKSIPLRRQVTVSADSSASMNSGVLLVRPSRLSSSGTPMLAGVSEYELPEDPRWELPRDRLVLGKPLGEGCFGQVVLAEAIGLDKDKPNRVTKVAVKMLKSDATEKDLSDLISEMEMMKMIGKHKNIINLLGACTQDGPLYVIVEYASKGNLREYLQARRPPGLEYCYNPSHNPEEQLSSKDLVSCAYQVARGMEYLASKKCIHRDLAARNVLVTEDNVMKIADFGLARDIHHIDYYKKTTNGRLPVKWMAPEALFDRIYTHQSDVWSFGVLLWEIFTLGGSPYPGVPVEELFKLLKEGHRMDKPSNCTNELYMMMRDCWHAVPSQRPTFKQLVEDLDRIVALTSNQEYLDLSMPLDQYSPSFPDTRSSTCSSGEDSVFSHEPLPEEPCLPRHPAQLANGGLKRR

[7] = system: Fibroblast growth factor receptor 3 (Homo sapiens), P22607 [K650E]; test: (§1) Selectivity interaction (SelectScreen profiling (Invitrogen)) EUB0000607a FGFR3; conditions: at 2 µM
Sequence of Fibroblast growth factor receptor 3 (Homo sapiens), P22607 [K650E] (P22607 whole entry K650E): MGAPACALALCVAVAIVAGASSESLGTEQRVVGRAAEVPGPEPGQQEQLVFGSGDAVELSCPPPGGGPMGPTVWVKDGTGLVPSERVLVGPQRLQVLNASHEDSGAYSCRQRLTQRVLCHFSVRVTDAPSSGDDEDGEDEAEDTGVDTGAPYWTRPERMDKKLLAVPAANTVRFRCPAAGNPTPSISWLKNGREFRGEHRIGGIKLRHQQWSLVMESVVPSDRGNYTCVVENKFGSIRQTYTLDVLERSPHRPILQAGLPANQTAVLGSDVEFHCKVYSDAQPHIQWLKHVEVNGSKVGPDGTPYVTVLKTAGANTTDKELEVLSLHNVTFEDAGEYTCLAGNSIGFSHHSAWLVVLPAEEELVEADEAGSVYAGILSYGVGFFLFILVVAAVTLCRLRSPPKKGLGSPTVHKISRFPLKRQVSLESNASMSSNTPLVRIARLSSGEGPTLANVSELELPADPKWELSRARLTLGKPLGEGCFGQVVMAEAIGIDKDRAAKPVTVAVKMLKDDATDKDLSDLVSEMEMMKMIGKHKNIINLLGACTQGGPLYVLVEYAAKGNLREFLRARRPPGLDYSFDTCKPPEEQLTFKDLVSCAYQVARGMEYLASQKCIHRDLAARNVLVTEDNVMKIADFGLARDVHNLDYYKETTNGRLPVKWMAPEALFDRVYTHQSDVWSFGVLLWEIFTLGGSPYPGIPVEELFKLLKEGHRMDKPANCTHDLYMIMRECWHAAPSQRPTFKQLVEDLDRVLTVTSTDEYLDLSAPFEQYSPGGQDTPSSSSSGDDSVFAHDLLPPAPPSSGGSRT

[8] = biological target: Fibroblast growth factor receptor 3 (Homo sapiens, UniProt P22607); test: as §1; conditions: at 2 µM
Sequence of Fibroblast growth factor receptor 3 (P22607 23-806 limits assumed): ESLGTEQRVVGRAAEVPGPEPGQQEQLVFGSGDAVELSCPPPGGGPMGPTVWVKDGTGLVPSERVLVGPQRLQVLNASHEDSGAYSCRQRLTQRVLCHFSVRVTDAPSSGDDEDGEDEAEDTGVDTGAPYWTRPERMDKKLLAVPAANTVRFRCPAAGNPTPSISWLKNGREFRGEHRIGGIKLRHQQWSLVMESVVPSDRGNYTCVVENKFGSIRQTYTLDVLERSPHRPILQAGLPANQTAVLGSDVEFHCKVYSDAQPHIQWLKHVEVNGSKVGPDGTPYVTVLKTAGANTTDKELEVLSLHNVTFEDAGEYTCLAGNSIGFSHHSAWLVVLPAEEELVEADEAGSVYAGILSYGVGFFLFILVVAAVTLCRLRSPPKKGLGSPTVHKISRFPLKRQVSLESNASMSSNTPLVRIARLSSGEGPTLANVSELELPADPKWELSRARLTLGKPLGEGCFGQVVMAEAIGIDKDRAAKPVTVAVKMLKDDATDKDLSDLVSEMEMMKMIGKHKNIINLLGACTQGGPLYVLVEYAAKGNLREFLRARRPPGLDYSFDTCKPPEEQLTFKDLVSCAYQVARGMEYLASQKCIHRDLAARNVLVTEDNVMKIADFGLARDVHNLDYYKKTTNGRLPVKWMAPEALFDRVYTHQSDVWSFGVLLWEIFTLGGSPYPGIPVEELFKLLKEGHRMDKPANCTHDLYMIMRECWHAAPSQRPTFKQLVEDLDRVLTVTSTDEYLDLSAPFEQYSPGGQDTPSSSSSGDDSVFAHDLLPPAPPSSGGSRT

SMILES: Cc1cc([C@@H](C)Nc2ccccc2C(=O)O)c2nc(N3CCOCC3)cc(=O)n2c1 [AZD-6482]
% of control [1]: 100%

% of inhibition [2]: 5.76%
SMILES: CC[C@@H]1[C@H](F)C(=O)N[C@@H]1COc1nccc2cc(C(N)=O)c(OC)cc12 [ZIMLOVISERTIB]

% of inhibition [3]: -1.94%
SMILES: Cn1cc(-n2cnc3c(NCc4nc5cc(Cl)c(Cl)cc5[nH]4)nc(N4CCOCC4)nc32)cn1

SMILES: Cc1cc(F)c(C(=O)Nc2cccc(-c3nncn3C(C)C)n2)cc1-n1cnc(C2CC2)c1
% of control [4]: 93%

SMILES: COc1cc(N(C)c2ccnc3ccc(C(F)(F)F)cc23)cc(OC)c1OC
% binding [5]: 92%

SMILES: CN(C)CCOc1ccc(-c2nc(-c3ccncc3)c(-c3ccc4c(c3)CC/C4=N\O)[nH]2)cc1
% of control [6]: 99%

SMILES: CNC(=O)Nc1ccc(-c2nc(N3CC4CCC(C3)O4)c3cnn(C4CCC5(CC4)OCCO5)c3n2)cc1
% of inhibition [7]: 6% | % of inhibition [8]: 5%
